In paper PMC6104605, “Discovery of new chromen-4-one derivatives as telomerase inhibitors through regulating expression of dyskerin” (Journal of Enzyme Inhibition and Medicinal Chemistry, 2018):

Columns and labels:
[1] = tested on: human cervical cancer cell Hela; assay: MTT anticancer assay, Hela; assay type: cell-based; details: MTT, 48 h exposure, mean ± SD, read-out: IC50 Hela
Procedure: The MTT was purchased from Sigma. Cell Cycle Analysis Kit and Apoptosis Analysis Kit were purchased from Bestbio (China). Mitochondrial membrane potential assay kit with JC-1 was purchased from Beyotime (China). All the materials were used as received without further purification unless noted specifically. The cell culture was maintained on DMEM medium (Hyclone, US) supplemented with 10% fetal bovine serum (Sijiqing, China), 100 U/mL penicillin and 100 µg/mL streptomycin in 25-cm^2 culture flasks at 37 °C humidified atmosphere with 5% CO2. Drugs were dissolved in DMSO and filtered through 0.22-µm pore-size filter units before addition to cell line appropriate media. When tumor cells were grown to log phase, diluting to 5 × 10^4 cells mL^−1 with the complete medium, 100 µL of the obtained cell suspension was added to each well of 96-well culture plates. The subsequent incubation was performed at 37 °C, 5% CO2 atmosphere for 48 h before subjecting to anti-proliferation assessment. After 48-h exposure period, 20 µL of PBS containing 5 mg·mL^−1 of MTT was added to each well. After 4 h, the medium was replaced by 150 µL DMSO to dissolve the purple formazan crystals produced. […] The data represented the mean of three experiments in triplicate and were expressed as means ± SD.

[2] = Octanol water partition coefficient, shake flask; assay type: physicochemical; details: octanol/PBS pH 7.4, 37 °C
Procedure: Octanole water partition coefficients was measured by the method of shake flask with slight modification. The aqueous phase was replaced by PBS (pH 7.4). First, the phase of octanol and the aqueous were saturated with each other. Then, the mixture containing title compounds was shaken at 37 °C. After 24 h, the mixture was centrifuged at 4000 rpm for 30 min, followed by the measured with ultraviolet spectrophotometer. At last, logP values were calculated.

[3] = tested on: human liver cancer cell SMMC-7721; assay: MTT anticancer assay, SMMC-7721; assay type: cell-based; details: 48 h exposure, mean ± SD
Procedure: The MTT was purchased from Sigma. Cell Cycle Analysis Kit and Apoptosis Analysis Kit were purchased from Bestbio (China). Mitochondrial membrane potential assay kit with JC-1 was purchased from Beyotime (China). All the materials were used as received without further purification unless noted specifically. The cell culture was maintained on DMEM medium (Hyclone, US) supplemented with 10% fetal bovine serum (Sijiqing, China), 100 U/mL penicillin and 100 µg/mL streptomycin in 25-cm^2 culture flasks at 37 °C humidified atmosphere with 5% CO2. Drugs were dissolved in DMSO and filtered through 0.22-µm pore-size filter units before addition to cell line appropriate media. When tumor cells were grown to log phase, diluting to 5 × 10^4 cells mL^−1 with the complete medium, 100 µL of the obtained cell suspension was added to each well of 96-well culture plates. The subsequent incubation was performed at 37 °C, 5% CO2 atmosphere for 48 h before subjecting to anti-proliferation assessment. After 48-h exposure period, 20 µL of PBS containing 5 mg·mL^−1 of MTT was added to each well. After 4 h, the medium was replaced by 150 µL DMSO to dissolve the purple formazan crystals produced. The absorbance at 492 nm of each well was measured on an ELISA plate reader. The data represented the mean of three experiments in triplicate and were expressed as means ± SD. The IC50 value was defined as the concentration at which 50% of the cells could survive. The following human tumor cell lines were used in the assay: human gastric cancer cells SGC-7901, human liver cancer cell SMMC-7721 and HepG2, human cervical cancer cell Hela and human glioma cell U87.

Bcl-2/Bax = assay: Western blot, Bcl-2/Bax; assay type: cell-based, human; details: SGC-7901, 1, 2 and 4 μM, 48 h
Procedure: (§1) An equivalent volume of 5 × SDS-sample buffer was added to cell lysates and boiled for 10 min. The supernatants were subjected to electrophoresis on SDS-PAGE gels and transferred to PVDF membrane by using a Bio-Rad apparatus. Membranes were blocked for 3 h at room temperature in TBST containing 5% non-fat dried milk and probed overnight at 4 °C with antibodies. CyclinD1 (abcam, ab134175, 1:10000), CDC25A (abcam, ab156574, 1:1000), CDC25C (abcam, ab32051, 1:1000), bcl-2 (abcam, ab32124,1:1000), bax (abcam, ab32503, 1:1000), PARP (abcam, ab191217, 1:1000), γH2AX (abcam, ab81299, 1:5000), dyskerin (abcam, ab156877, 1:1000), NHP2 (abcam, ab180498, 1:1000), NOP10 (abcam, ab133726, 1:1000) antibody was performed with rabbit primary antibody. Otherwise, β-actin (ZSGB-BIO, 1:1000) detection was performed with mouse primary antibody which was served as internal controls. Protein bands of β-actin was visualised using peroxidase-labeled goat anti-mouse and others were visualised using peroxidase-labeled goat anti-rabbit secondary antibody (1:5000 dilution, 1 h, room temperature), and the protein expression signals were detected by the BeyoECL Plus (Beyotime).

CDC25C = assay: Western blot, CDC25C; assay type: cell-based, human; details: SGC-7901, 1, 2 and 4 μM, 48 h
Procedure: as §1

dyskerin = assay: Immunofluorescence staining of dyskerin localisation; assay type: cell-based, human; details: SGC-7901, 2 µM, 48 h
Procedure: SGC-7901 cells were grown on glass coverslips in a 6-well culture plate until approximately 30–40% confluent and then treated with compound 5i for 48 h. The coverslips were fixed in 4% paraformaldehyde for 15 min, followed by 0.5% Triton X-100 for 30 min at room temperature. Fixed and permeabilised cells were blocked with 3% BSA for 30 min at room temperature. Then, the cells were respectively immunolabeled with the appropriate primary and secondary antibodies. FITC-conjugated anti-rabbit IgG (ZSBIO, 1:100) for dyskerin emit green fluorescence. DAPI was used for nuclear staining.

NOP10 = assay: Western blot, NOP10; assay type: cell-based, human; details: SGC-7901, 1, 2 and 4 μM, 48 h
Procedure: as §1

NHP2 = assay: Western blot, NHP2; assay type: cell-based, human; details: SGC-7901, 1, 2 and 4 μM, 48 h
Procedure: as §1

## COc1cc(OC)c2c(=O)c(OCCCCN3CCN(C(=O)c4ccncc4)CC3)c(-c3cc(OC)c(OC)c(OC)c3)oc2c1 [Compound 5i, 3-(4-(4-isonicotinoylpiperazin-1-yl)butoxy)-5,7-dimethoxy-2-(3,4,5-trimethoxyphenyl)-4H-chromen-4-one]
[1]
  IC50: 1020 ± 210 nM
[2]; octanol/PBS (pH 7.4), pH 7.4, shake flask, read-out: Log p (octanole water partition coefficient)
  logP at 24 h: 3.01
[2]; shake flask, 24 h
  Log p (octanole water partition coefficient): 2.81
[3]
  IC50: 1330 ± 140 nM
Bcl-2/Bax
  proportion of Bcl-2/Bax (western blot): reduced
CDC25C
  expression of CAC25C (western blot): significantly decrease
dyskerin
  cytoplasm localisation dyskerin (immunofluorescence): significantly reduced
  nucleus dyskerin (immunofluorescence): almost all the nucleus dyskerin was disappeared
NOP10
  NOP10 protein level (western blot): no significant changes
NHP2
  NHP2 protein level (western blot): no significant changes
